US7943611B2, “Imidazo[1,2-A]pyridin-3-yl-acetic acid hydrazides, processes, for their preparation and pharmaceutical uses thereof” (Ferrer International, S.A., priority 2006, dated 2011)

Legend:
[1] = test system: spontaneous motor activity in mice; test: In vivo predictive sedation-hypnosis test (spontaneous motor activity, traveled distance); design: species or system mouse; settings: for % Motor activity inhibition: male CD1 mice, single equimolecular intraperitoneal dose, traveled distance vs control over 30 min (first 5 min discarded); for ID50 inhibiting spontaneous motor activity: dose-response curve, intraperitoneal
Method: b) In Vivo Determination of Predictive Sedative-Hypnotic Action
The in vivo effects of these compounds were assessed by a predictive sedation-hypnosis test in mice (D. J. Sanger et al., Eur. J. Pharmacol., 313, 35-42, 1996; and G. Griebel et al., Psychopharmacology, 146, 205-213, 1999).
Groups of 5-8 male CD1 mice, weighing 22-26 g at the time of test, were used. The test compounds were administered in single equimolecular intraperitoneal doses, suspended in 0.25% agar with one drop of Tween in a volume of 10 mL/kg. Control animals received the vehicle alone. Using a Smart System (Panlab, S. L., Spain) the traveled distance in cm was recorded for each mouse at 5 min intervals during a period of 30 minutes after dosing. The inhibition percentage traveled distance of treated animals versus control animals (the first 5 min were discarded) was calculated.

[2] = target: T1, α1-subunit of the GABAA receptor (Rattus norvegicus, UniProt P62813); test: Ligand-binding assay, radiolabeled flumazenil competition, cerebellum membranes; settings: 1 nM radiolabeled flumazenil; for inhibition at 10 µM: 10^−5 M test compound, read-out: % Inhib 10^−5M (affinity for the α1-subunit of the GABAA receptor); for inhibition at 0.1 µM: 10^−7 M test compound, read-out: % Inhib 10^−7M (affinity for the α1-subunit of the GABAA receptor)
T1 construct: the cerebellum (tissue that mostly contains α1-GABAA receptor); from tissue; host or cells: rat cerebellum membranes
Method: (§1) a) Ligand-Binding Assays. Determination of the Affinity of Test Compounds for α1- and α2-GABAA Receptor
(§2) Male Sprague-Dawley rats weighing 200-250 g at the time of experiment were used. After decapitation of the animal, the cerebellum (tissue that mostly contains α1-GABAA receptor) and spinal cord (tissue that mostly contains α2-GABAA receptor) were removed. The membranes were prepared according to the method by J. Lameh et al. (Prog. Neuro-Psychopharmacol. Biol. Psychiatry, 24, 979-991, 2000) and H. Noguchi et al. (Eur J Pharm, 434, 21-28, 2002) with slight modifications. Once the tissues weighed, they were suspended in 50 mM Tris.HCl (pH 7.4), 1:40 (v/v), or sucrose 0.32 M in the case of spinal cord, homogenized and then centrifuged at 20,000 g for 10 min at 7° C. The resulting pellet was resuspended under the same conditions and centrifuged again. The pellet was finally resuspended on a minimum volume and kept at −80° C. overnight. On the next day, the process was repeated until the final pellet was resuspended at a ratio of 1:10 (v/v) in the case of cerebellum and at a ratio of 1:5 (v/v) in the case of spinal cord.
(§3) Affinity was determined by competitive tests using radiolabeled flumazenil as ligand. The tests were performed according to the methods described by S. Arbilla et al. (Eur. J. Pharmacol., 130, 257-263, 1986); and Y. Wu et al. (Eur. J. Pharmacol., 278, 125-132, 1995) using 96-well microtiter plates. The membranes containing the study receptors, flumazenil (radiolabeling at a final concentration of 1 nM) and ascending concentrations of test compounds (in a total volume of 230 μl in 50 mM [pH 7.4] Tris.HCl buffer) were incubated. Simultaneously, the membranes were only incubated with the radiolabeled flumazenil (total binding, 100%) and in the presence of an elevated concentration of unradiolabeled flumazenil (non-specific binding, % estimation of radiolabeled ligand). The reactions started on adding the radiolabeled ligand followed by incubation for 60 minutes at 4° C. At the end of the incubation period, 200 μl of reaction were transferred to a multiscreen plate (Millipore) and filtered using a vacuum manifold and then washed three times with cold test buffer. The multiscreen plates were equipped with a GF/B filter that retained the membranes containing the receptors and the radiolabeled ligand which had been bound to the receptors. After washing, the plates were left till dry. Once dried, scintillation liquid was added and left under stirring overnight. The next day the plates were counted using a Perkin-Elmer Microbeta scintillation counter.
(§4) For analysis of the results the percentage of specific binding for every concentration of test compound was calculated as follows: % specific binding=(X−N/T−N)×100 where, • X: amount of bound ligand for every concentration of compound. • T: total binding, maximum amount bound to the radiolabeled ligand. • N: non-specific binding, amount of radiolabeled ligand bound in a non-specific way irrespective of the receptor used.
(§5) Every concentrations of compound were tested in triplicate and their mean values were used to determine the experimental values of % specific binding versus the concentration of compound. Affinity data are expressed as % inhibition at 10^−5 M and 10^−7 M concentrations.

[3] = test system: α2-subunit of the GABAA receptor; test: Ligand-binding assay, radiolabeled flumazenil competition, spinal cord membranes; settings: rat spinal cord membranes, 1 nM radiolabeled flumazenil; for % Inhib 10^−5M (affinity for the α2-subunit of the GABAA receptor): 10^−5 M test compound; for % Inhib 10^−7M (affinity for the α2-subunit of the GABAA receptor): 10^−7 M test compound
Method: as §1, §2, §3, §4, §5

Compound	% Motor activity inhibition [1] [%]	inhibition at 10 µM [2] [%]	inhibition at 0.1 µM [2] [%]	ID50 inhibiting spontaneous motor activity ([1]; mice) [µmol/kg]	fold greater potency in inhibiting spontaneous motor activity compared to zolpidem ([1]; mice, from ID50 values) [fold]	% Inhib 10^−5M (affinity for the α2-subunit of the GABAA receptor) [3] [%]	% Inhib 10^−7M (affinity for the α2-subunit of the GABAA receptor) [3] [%]
Cc1ccc(-c2nc3ccc(C)cn3c2CC(=O)N/N=C/c2ccc(Cl)cc2)cc1 [Example 7, (6-Methyl-2-p-tolyl-imidazo[1,2-a]pyridin-3-yl)-acetic Acid (4-chlorobenzylidene)-hydrazide]	25.05	46.1	0.9	–	–	–	–
Cc1ccc(-c2nc3ccc(C)cn3c2CC(=O)NN)cc1 [Example 3, (6-Methyl-2-p-tolyl-imidazo[1,2-a]pyridin-3-yl)-acetic Acid Hydrazide]	92.03	98.7	55.9	1.9	2	–	–
Cc1ccc(-c2nc3ccc(C)cn3c2CC(=O)N(C)C)cc1 [Zolpidem, N,N,6-trimethyl-2-p-tolylimidazo[1,2-a]pyridine-3-acetamide, reference compound]	91.70	73.6	–	4.4	–	74.1	19.9
CC(C)=NNC(=O)Cc1c(-c2ccc(C)cc2)nc2ccc(C)cn12 [Example 9, (6-Methyl-2-p-tolyl-imidazo[1,2-a]pyridin-3-yl)-acetic acid isopropylidene-hydrazide]	92.03	98.5	24.2	–	–	86.6	21.9
Cc1ccc(-c2nc3ccc(C)cn3c2CC(=O)N(C)N)cc1 [Example 6, (6-Methyl-2-p-tolyl-imidazo[1,2-a]pyridin-3-yl)-acetic Acid N-methyl-hydrazide]	93.42	99	59.1	–	–	71.6	2.0
C/C=N/NC(=O)Cc1c(-c2ccc(C)cc2)nc2ccc(C)cn12 [Example 8, (6-Methyl-2-p-tolyl-imidazo[1,2-a]pyridin-3-yl)-acetic Acid Ethylidene-hydrazide]	90.16	97.6	25.2	–	–	88.6	11.2
